# Source: EP0279150A1, “5-Oxy-substituted-3-aminochroman compounds, processes for their preparation, pharmaceutical compositions containing them and methods of treatment therewith” (ASTRA LAKEMEDEL AKTIEBOLAG, priority 1986, dated 1988)
# Legend:
# Dopamine-D₂ = target: T1, Dopamine-D₂ (Rattus norvegicus, UniProt P61169); assay: Receptor binding assay, ³H-spiroperidol; details: ³H-spiroperidol binding, rat brain membranes
# T1 construct: The striata were dissected, pooled and homogenized in 50 mM Tris-HCl buffer (pH 7.6); from tissue; host or cells: rat striatum membrane fraction
# Description: (§1) The method of Peroulka & Snyder (Mol.Pharmacol. 16, 687-699, 1979) was used. Male Sprague-Dawley rats weighing 150-200 g were decapitated, and their brains were rapidly removed. The striata were dissected, pooled and homogenized in 50 mM Tris-HCl buffer (pH 7.6). The membrane fraction was collected by centrifugation (48 000 g for ten minutes), washed once with the buffer, and resuspended in 50 mM Tris HCl (pH 7.6) containing 0.1% ascorbic acid, 10 mM paragyline, 120 mM NaCl, 5 mM KCl, 2 mM CaCl₂ and 1 mM MgCl₂. The suspension was preincubated at 37°C for 10 minutes and then kept on ice until use.
# (§2) The assays have been carried out using a cell harvester equipment. The incubations were made in quadruplicate, each well containing membrane suspension, ³H-spiperone (0.4 nM) or ³H-5-HT (5 nM) and the test compound in a final volume of 0.5 ml. After incubation for 10 minutes at 37°C, the contents of the wells were rapidly filtered and washed on Whatman GF/B filters using the Cell harvester. The specific binding was defined as the difference of radioligand bound in the presence and in the absence of a specific displacer (d-LSD, lµM and 5-HT, 10 µM for ³4-spiperone and ³H-5-HT, respectively). The test results are expressed as IC₅₀. The IC₅₀ value is given in nM, indicates the concentration of the test substance which reduces the amount of specifically bound radioligand by 50%..
# 5-HT₁ = assay: Receptor binding assay, ³H-5-HT; details: ³H-5-HT (5 nM) binding, rat brain (striatal) membranes, 10 minutes at 37°C; read-out: IC₅₀
# Description: as §1, §2
# 5-HT₂ = target: T2, 5-HT₂ (Rattus norvegicus, UniProt P14842); assay: Receptor binding assay, ³H-Ketanserin; details: ³H-Ketanserin binding, rat brain membranes
# T2 construct: from tissue
# T2 sequence (P14842 whole entry): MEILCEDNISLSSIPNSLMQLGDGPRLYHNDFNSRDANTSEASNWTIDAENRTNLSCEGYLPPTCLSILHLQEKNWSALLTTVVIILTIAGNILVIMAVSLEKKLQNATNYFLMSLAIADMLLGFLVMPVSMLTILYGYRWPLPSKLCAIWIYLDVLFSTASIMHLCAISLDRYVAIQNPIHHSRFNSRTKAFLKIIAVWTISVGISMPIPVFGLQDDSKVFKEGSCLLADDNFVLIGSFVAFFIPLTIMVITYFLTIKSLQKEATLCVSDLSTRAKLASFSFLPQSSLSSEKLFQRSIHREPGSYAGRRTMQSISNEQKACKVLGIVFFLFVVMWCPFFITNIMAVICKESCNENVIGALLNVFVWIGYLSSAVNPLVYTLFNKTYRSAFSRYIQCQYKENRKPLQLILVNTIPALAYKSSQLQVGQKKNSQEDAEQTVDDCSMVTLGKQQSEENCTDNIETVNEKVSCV
# T1 sequence (P61169 whole entry): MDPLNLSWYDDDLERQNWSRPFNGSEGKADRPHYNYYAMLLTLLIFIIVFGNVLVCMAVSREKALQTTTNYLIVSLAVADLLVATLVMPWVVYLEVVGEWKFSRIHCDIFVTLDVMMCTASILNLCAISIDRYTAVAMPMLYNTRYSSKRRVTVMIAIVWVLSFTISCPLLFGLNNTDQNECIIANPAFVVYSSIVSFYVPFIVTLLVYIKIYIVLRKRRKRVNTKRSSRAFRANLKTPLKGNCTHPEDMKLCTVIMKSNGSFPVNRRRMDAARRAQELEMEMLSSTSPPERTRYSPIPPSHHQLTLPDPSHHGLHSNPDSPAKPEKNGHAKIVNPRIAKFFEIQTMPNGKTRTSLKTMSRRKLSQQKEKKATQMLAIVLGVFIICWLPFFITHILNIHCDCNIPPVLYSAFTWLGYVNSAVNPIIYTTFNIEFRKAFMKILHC
structure (smiles),measurement,setting,value
"CCCN(CCC)C1COc2cccc(O)c2C1 (stereo not drawn) [3-di-propylamino-5-hydroxychroman, 3-dipropylamino-5-hydroxychroman]",activity in ³H-spiroperidol (Dopamine-D₂) receptor binding,Dopamine-D₂,inactive
same,IC50,5-HT₁,83 nM
same,activity in ³H-Ketanserin (5-HT₂) receptor binding,5-HT₂,inactive
